Measured values reported in patent US20060229354A1, “Use of Isatin in stimulating red blood cell production and treatment of anemia” (priority 2005, published 2006).

Columns and labels:
[1] = test system: STAT5; assay: Immunoprecipitate analysis of STAT5 phosphorylation in UT7/EPO cells; format: cell-based; conditions: FIG. 6
Excerpt: FIG. 6 illustrates the results of Immunoprecipiate analysis of the effects of EPO and Isatin on STAT5 phosphorylation in UT7/EPO Cells.
Activation of EPO-R by EPO is predominately mediated by JAK signaling pathway, and STAT5 protein is the major component involving in this signal transduction. We studied the activity of STAT5 in response to Isatin treatment.

[2] = test system: JAK2-associated EPOR; assay: Immunoprecipitate study of phosphorylation of JAK2-associated EPOR in UT7/EPO cells; format: cell-based
Description: Referring to FIG. 5B, the Isatin-induced EPO-R phosphorylation occurs 5 minutes after the treatment and sustains beyond 1 hour afterwards.

[3] = test system: freshly isolated peripheral blood mononuclear cells; assay: Melphalan-induced apoptosis in peripheral blood mononuclear cells; format: cell-based; conditions: data not shown
[4] = test system: RPM18226 cells; assay: Melphalan-induced apoptosis in RPM18226 cells; format: cell-based; conditions: data not shown
[5] = test system: UT7/EPO cells; assay: Calcein-AM release assay, EPO-deprived UT7/EPO cells; format: cell-based; conditions: Isatin treatment
Description: Calcein-AM was purchased from Molecular Probes (Eugene) as a 1 mg/ml solution in dry dimethyl sulfoxide. UT7/EPO cells were resuspended in complete medium at a final concentration of 10^6/ml and incubated with 15 uM calcein-AM for 30 mininutes at 37° C. with occasional shaking. After two washes in the same way as the ^51Cr assay in V bottom 96-well microtiter plates, with E:T ratios ranging from 50:1 to 0.5:1, in triplicate, and with at least six replicate wells for spontaneous and maximum release. Various numbers of UT7/EPO cells treated with Isatin or EPO or with untreated cells were seeded as follows. After incubation 37° C. in 5% CO2 for 4 hours, 75 ul of each supernatant was harvested and transferred into new plates. The samples were measured using a Sepctramax Gemini dual-scanning microplate spectrofluoimeter. Data were expressed as arbitrary fluorescent unites (AFU). Percent lysis was calculated with the same formula used for the ^51Cr for the ^51CR assay.

[6] = test system: UT7/EPO cells; assay: MTT assay, EPO-deprived UT7/EPO cells; format: cell-based; conditions: Isatin treatment
Description: UT7/EPO cells were cultured for 4 hours and then placed in triplicate in 96 well microtiter plates. The cell was treated with Isatin or EPO or PBS and cultured in 100 ul of DMEM, 10% FCS, overnight. The next day, media was removed and replace MTT assay solution. The plates were incubated for and addition 48 hours. And then cell viability was determined using a MTT assay, as described by manufacture (Sigma).

[7] = test system: MO7E cells; assay: Apoptosis Assay (AA), GM-CSF-deprived MO7E cells; format: cell-based; conditions: FIG. 4
[8] = test system: UT7/EPO cells; assay: Viable cell counts (trypan blue staining), EPO-deprived UT7/EPO cells; format: cell-based; conditions: Isatin treatment
[9] = test system: UT7/EPO cells; assay: DNA Ladder Detection Assay, EPO-deprived UT7/EPO cells; format: cell-based; conditions: Isatin treatment
Description: 10^6 UT7/EPO cells, after treated with either Isatin or EPO or PBS, was lysed with 150 ul hypotonic lysis buffer (10 mM EDTA, 0.5% Triton X-100 in […] Tris-HCl, pH 7.4) for 15 minutes on ice and were precipitated with 2.5% polyethylene glycerol and 1 M NaCl for 15 minutes at 4 C. After centrifugation at 16,000 rpm for 10 minutes at room temperature, the supernatant was incubated in the presence of proteinase K (0.3 g/L) at 37° C. for one hour and precipitated with isopropanol at −20° C. After centrifugation, each cell pellet was dissolved in 10 ul of Tris-EDTA (pH 7.6) and electrophoresed on a 1.5% agarose gell containing ethidium bromide. Ladder formation of oligonucleosomal DNA was detected under ultraviolet.

[10] = test system: UT7/EPO cells; assay: Apoptosis Assay (AA), EPO-deprived UT7/EPO cells; format: cell-based
Description: UT7/EPO cells treated by Isatin or EPO or PBS was plated in triplicate in 96-well microtiter plates in 50 μl of culture medium and incubated for different time course. The cell apoptosis products were determined by Florence-probe. The cell apoptosis rate was calculated by positive apoptosis fragments.
We used several assays as mentioned in Materials and Methods section to evaluate the pharmacological activity of Isatin compound by examining the growth or the apoptosis of UT7/EPO cells. The cells used in AA assay are UT7/EPO. UT7/EPO cells were deprived from UT7 by elegant genetic engineering. As a result, the survival and growth of UT7/EPO cells rely on the stimulation of EPO-R by the exogenous EPO treatment. On the other hand, without the support of the exogenous EPO, the UT7/EPO cells will die. […] We used different assays to measure the level of apoptosis in UT7/EPO cells. If the tested compounds have erythropoietic agonist effect, the level of apoptosis in UT7/EPO cells should decrease in response to the treatment. […] Compared to EPO, higher dose of Isatin was required to generate the same extent of inhibition.

[11] = initial phase of therapy; cited from earlier work
[12] = refrigerator between 2° C. and 8° C.; cited from earlier work

| IC50 ([10]; Homo sapiens, UT-7/Epo, read-out: IC50 for inhibiting apoptosis in UT7/EPO cells) [µM] | Compound | STAT5 activity (phosphorylation) during treatment [1] | duration of EPO-R phosphorylation after treatment ([2]; FIG. 5B) [h] | time of onset of EPO-R phosphorylation after treatment ([2]; FIG. 5B) [min] | phosphorylation of EPO-R through JAK2 mediated signaling pathway ([2]; FIGS. 5A and 5B) | phosphorylation of EPO-R, Isatin used together with EPO ([2]; Isatin together with EPO) | inhibition of Melphalan-induced apoptosis in freshly isolated peripheral blood mononuclear cells [3] | inhibition of Melphalan-induced apoptosis in RPM18226 cells [4] | Calcein (cell viability) [5] | MTT (cell viability) [6] | inhibition of GM-CSF withdrawal-induced apoptosis in MO7E cells [7] | Viable Cell Counts (trypan blue staining) [8] | DNA Ladder Assay [9] | effect of Isatin used together with EPO on apoptosis inhibition / EPO-R activity ([10]; Isatin together with EPO, UT7/EPO cells, FIG. 3) | AA (apoptosis) ([10]; Isatin treatment, EPO-deprived UT7/EPO cells) | erythropoietic stimulation effect compared with EPO ([10]; UT7/EPO cells, comparison with EPO) | apoptosis inhibition on UT7/EPO cells, concentration dependence ([10]; increasing Isatin concentration, FIGS. 2A and 2B) | increase in the hematocrit [11] [% per week] | shelf life of multi-dose vials in refrigerator after the initial dose [12] |
| --- | --- | --- | --- | --- | --- | --- | --- | --- | --- | --- | --- | --- | --- | --- | --- | --- | --- | --- | --- |
| ~10 | O=C1Nc2ccccc2C1=O [Isatin, Indole-2,3-dione] | no change in STAT5 activity | > 1 | 5 | induces phosphorylation of EPO-R | significantly enhance the phosphorylation of EPO-R | no noted inhibition | no noted inhibition | ↑ | ↑ | no noted inhibition | ↑ | ↓ | synergistic effect | ↓ | weaker than that of EPO | steadily enhanced when the concentration of Isatin was increased | – | – |
| – | Epoetin alfa: recombinant EPO protein developed by Amgen, approved by FDA for the treatment of anemia | – | – | – | – | – | – | – | – | – | – | – | – | – | – | – | – | 2 | about 20 days |
